Assay: Single-ascending-dose (SAD) pharmacokinetics in plasma and urine, healthy adult volunteers
Assay type: in vivo, human
Settings: for Tmax: median (range); for Fe: excreted unchanged in urine over 48 h; for Ae: urine over 48 h
Method: Eligible subjects were randomized to receive either taniborbactam or placebo in a 3:1 ratio within dose cohorts in both the SAD and MAD parts of the study. Each dose cohort in the SAD part of the study enrolled 8 subjects, and each dose cohort in the MAD part of the study enrolled 12 subjects. In the SAD part, subjects received 62.5, 125, 250, 500, 1,000, or 1,500 mg taniborbactam as a 2-h intravenous (i.v.) infusion. In the MAD part, subjects received 2-h intravenous i.v. infusions of 250, 500, or 750 mg taniborbactam q8h over 10 days, ending after a final morning dose on day 10 (total of 28 doses).
Blood samples for assay of taniborbactam in plasma were collected predose and at 1, 2, 2.25, 2.5, 2.75, 3, 4, 6, 8, 12, 26, and 50 h after the start of drug infusion in the SAD part. For the MAD part, blood samples to determine taniborbactam plasma concentrations were collected predose and at 1, 2, 2.25, 2.5, 2.75, 3, 4, 6, and 8 h following the first dose (day 1) and predose and at 1, 2, 2.25, 2.5, 2.75, 3, 4, 6, 10, 14, and 26 h following the last dose (day 10). Urine was collected predose and at intervals of 0 to 4, 4 to 8, 8 to 24, and 24 to 48 h after the start of the infusion in the SAD part for the higher-dose groups (500 to 1,500 mg taniborbactam). For the MAD part, urine was collected through the dosing interval following the last dose using collection intervals of 0 to 4 and 4 to 8 h after the start of the infusion. At the end of each urine collection interval, the volume of each urine collection was recorded and a sample was taken.
Plasma and urine samples were assayed for taniborbactam and screened for possible metabolites. Human dipotassium ethylenediaminetetraacetic acid (K2EDTA) plasma samples were processed using protein precipitation and assayed using ultra-high-performance liquid chromatography with tandem mass spectrometric detection (LC-MS/MS). Both low- and high-range methods were developed and validated for plasma samples, with calibration ranges of 5 to 5,000 ng/ml and 100 to 100,000 ng/ml, respectively. Acidified urine samples were processed using solid-phase extraction and assayed using a validated LC-MS/MS method with a calibration range of 5.0 to 5,000 ng/ml. For both matrices, separation was accomplished using a Waters Acquity HSS T3 column (Milford, MA) at 50°C, and gradient elution using 10 mM ammonium formate with 1% formic acid as mobile phase A and 50:50:1 acetonitrile:methanol:formic acid (vol/vol/vol) as mobile phase B. A triple quadrupole mass spectrometer (API Triple Quad 5500; AB Sciex, Framingham, MA) equipped with a turbo-ion spray set was used for detection in positive ion mode, and quantification was based on multiple reaction monitoring. The internal standard used in the assays was D4-taniborbactam.
Individual subject plasma and urine taniborbactam pharmacokinetic parameters were evaluated using noncompartmental analysis methods (Phoenix WinNonlin, Certara, Princeton, NJ). Single-dose pharmacokinetic parameters were determined in the SAD part, and both single-dose (day 1) and multiple-dose (day 10) pharmacokinetic parameters were determined in the MAD part. Estimated pharmacokinetic parameters included Cmax, time to Cmax (Tmax), AUCtau, AUC0–inf, t1/2, CL, VZ, Ae, Fe, and CLR. The actual sample times were used to calculate the pharmacokinetic parameters. Calculation of λZ was based on best fit of concentrations in the observed terminal elimination phase of a profile, and statistical inclusion of any parameter based on λZ required the goodness of fit statistic (R^2) to be greater than 0.8. Pharmacokinetic data were summarized using descriptive statistics by treatment. Dose proportionality based on Cmax and AUC was determined using linear regression to calculate the slope and 90% CI and observing whether a slope of 1 was included in the confidence interval. The dose proportionality analysis included subject body weight as a covariate in the analysis.

[1] = single dose 62.5 mg, 2-h i.v. infusion, mean (%CV)
[2] = single dose 125 mg, 2-h i.v. infusion, mean (%CV)
[3] = single dose 250 mg, 2-h i.v. infusion, mean (%CV)
[4] = single dose 500 mg, 2-h i.v. infusion, mean (%CV)
[5] = single dose 1,000 mg, 2-h i.v. infusion, mean (%CV)
[6] = single dose 1,000 mg, mean (%CV)
[7] = single dose 1,500 mg, 2-h i.v. infusion, mean (%CV)
[8] = single dose 1,500 mg, mean (%CV)

In the case of `NCCN[C@H]1CC[C@H](CC(=O)N[C@H]2Cc3cccc(C(=O)O)c3OB2O)CC1` [Taniborbactam], the t1/2 (higher single-dose groups (500 to 1,500 mg)) is reported as ~5.7 h, the AUCinf [1] is reported as 11,284 (13.3) h · ng/ml and the CL [1] is reported as 5.6 (14.1) liters/h. The Cmax [1] was 3,398 (17.0) ng/ml, the Vz [1] was 28.4 (18.7) liters and the Tmax (single dose 62.5 mg, 2-h i.v. infusion) was 2.0 (2.0, 2.0) h. The t1/2 (single dose 62.5 mg, 2-h i.v. infusion, terminal elimination, mean (%CV)) was 3.5 (9.3) h, the AUCinf [2] was 20,326 (13.7) h · ng/ml and the CL [2] was 6.2 (12.6) liters/h. The Cmax [2] was 5,023 (13.8) ng/ml, the Vz [2] was 30.2 (14.2) liters and the Tmax (single dose 125 mg, 2-h i.v. infusion) was 2.0 (2.0, 2.0) h. For the same compound, the t1/2 (single dose 125 mg, 2-h i.v. infusion, terminal elimination, mean (%CV)) was 3.4 (5.8) h, the AUCinf [3] was 41,106 (19.0) h · ng/ml and the CL [3] was 6.3 (17.5) liters/h. The Cmax [3] was 11,533 (13.8) ng/ml, the Vz [3] was 34.6 (17.1) liters and the Tmax (single dose 250 mg, 2-h i.v. infusion) was 2.0 (2.0, 2.0) h. For the same compound, the t1/2 (single dose 250 mg, 2-h i.v. infusion, terminal elimination, mean (%CV)) was 4.0 (31.1) h, the AUCinf [4] was 82,499 (9.2) h · ng/ml and the CL [4] was 6.1 (9.0) liters/h. For the same compound, the Cmax [4] was 22,650 (11.4) ng/ml, the Vz [4] was 50.2 (12.1) liters and the Tmax (single dose 500 mg, 2-h i.v. infusion) was 2.0 (2.0, 2.0) h. The t1/2 (single dose 500 mg, 2-h i.v. infusion, terminal elimination, mean (%CV)) was 5.7 (4.3) h, the Fe (single dose 500 mg, mean (%CV)) was 64.1 (9.6) % and the Fe (single dose 500 mg, mean (%CV), listed as taniborbactam) was 64.1%. The CLR (single dose 500 mg, mean (%CV)) was 3.9 (15.5) liters/h, the Ae (single dose 500 mg, mean (%CV)) was 320.6 (9.6) mg and the AUCinf [5] was 156,542 (15.7) h · ng/ml. The CL [5] was 6.5 (15.7) liters/h, the Cmax [5] was 43,317 (14.8) ng/ml and the Vz [5] was 54.0 (17.9) liters. The Tmax (single dose 1,000 mg, 2-h i.v. infusion) was 2.0 (2.0, 2.1) h, the t1/2 (single dose 1,000 mg, 2-h i.v. infusion, terminal elimination, mean (%CV)) was 5.7 (3.3) h and the Fe [6] was 76.7 (9.4) %. For the same compound, the Fe (single dose 1,000 mg, mean (%CV), listed as taniborbactam) was 76.7%, the CLR [6] was 5.0 (16.7) liters/h and the Ae [6] was 766.9 (9.4) mg. The AUCinf [7] was 263,422 (17.8) h · ng/ml, the CL [7] was 5.9 (19.2) liters/h and the Cmax [7] was 71,817 (16.3) ng/ml. For the same compound, the Vz [7] was 49.4 (21.6) liters, the Tmax (single dose 1,500 mg, 2-h i.v. infusion) was 2.0 (2.0, 2.0) h and the t1/2 (single dose 1,500 mg, 2-h i.v. infusion, terminal elimination, mean (%CV)) was 5.8 (6.2) h. The Fe [8] was 66.6 (12.9) %, the Fe (single dose 1,500 mg, mean (%CV), listed as taniborbactam) was 66.6% and the CLR [8] was 3.9 (16.8) liters/h. For the same compound, the Ae [8] was 998.7 (12.9) mg and the “half-life of the earlier phase that characterizes the majority of exposure” value (single doses, also seen within dose intervals on multiple dosing) was “about 2 h”.
